This is an account of results in ChEMBL document CHEMBL1124322, “Synthesis and alpha 2-adrenoceptor antagonist activity of some disulfonamidobenzoquinolizines” (J Med Chem, 1989).

Structures are written as SMILES.

The target in experiment [1] is T1, Adrenergic receptor alpha-1 (Rattus norvegicus, UniProt P15823+P23944+P43140).
T1 sequence (P15823 whole entry): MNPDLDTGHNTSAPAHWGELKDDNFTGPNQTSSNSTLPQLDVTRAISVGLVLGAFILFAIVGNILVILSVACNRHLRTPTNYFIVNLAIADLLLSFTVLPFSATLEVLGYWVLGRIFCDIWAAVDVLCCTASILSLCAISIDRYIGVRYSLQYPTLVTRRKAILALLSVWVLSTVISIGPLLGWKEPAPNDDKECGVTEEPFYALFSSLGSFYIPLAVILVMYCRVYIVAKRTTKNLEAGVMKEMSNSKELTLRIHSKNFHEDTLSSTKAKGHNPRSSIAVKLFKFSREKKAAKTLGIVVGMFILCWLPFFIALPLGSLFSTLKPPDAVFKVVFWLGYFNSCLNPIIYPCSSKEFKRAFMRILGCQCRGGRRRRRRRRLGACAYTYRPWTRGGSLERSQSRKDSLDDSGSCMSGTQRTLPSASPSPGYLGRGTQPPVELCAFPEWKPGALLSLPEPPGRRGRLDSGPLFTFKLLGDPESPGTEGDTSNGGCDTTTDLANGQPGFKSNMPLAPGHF
T1 sequence (P23944 whole entry): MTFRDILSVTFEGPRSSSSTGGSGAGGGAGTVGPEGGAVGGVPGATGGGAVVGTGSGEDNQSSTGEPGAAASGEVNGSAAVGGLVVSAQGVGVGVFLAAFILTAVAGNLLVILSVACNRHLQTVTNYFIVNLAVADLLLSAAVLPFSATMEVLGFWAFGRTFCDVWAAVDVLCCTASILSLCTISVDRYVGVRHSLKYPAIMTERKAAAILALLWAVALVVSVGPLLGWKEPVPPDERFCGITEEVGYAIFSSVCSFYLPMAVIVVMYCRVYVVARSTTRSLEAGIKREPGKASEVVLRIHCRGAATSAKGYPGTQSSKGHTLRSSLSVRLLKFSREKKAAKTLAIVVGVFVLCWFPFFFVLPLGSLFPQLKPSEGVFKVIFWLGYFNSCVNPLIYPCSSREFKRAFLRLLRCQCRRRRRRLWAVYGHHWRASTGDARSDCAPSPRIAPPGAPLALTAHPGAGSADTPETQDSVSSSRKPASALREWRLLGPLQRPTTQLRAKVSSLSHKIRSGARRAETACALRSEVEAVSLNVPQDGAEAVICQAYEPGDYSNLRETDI
T1 sequence (P43140 whole entry): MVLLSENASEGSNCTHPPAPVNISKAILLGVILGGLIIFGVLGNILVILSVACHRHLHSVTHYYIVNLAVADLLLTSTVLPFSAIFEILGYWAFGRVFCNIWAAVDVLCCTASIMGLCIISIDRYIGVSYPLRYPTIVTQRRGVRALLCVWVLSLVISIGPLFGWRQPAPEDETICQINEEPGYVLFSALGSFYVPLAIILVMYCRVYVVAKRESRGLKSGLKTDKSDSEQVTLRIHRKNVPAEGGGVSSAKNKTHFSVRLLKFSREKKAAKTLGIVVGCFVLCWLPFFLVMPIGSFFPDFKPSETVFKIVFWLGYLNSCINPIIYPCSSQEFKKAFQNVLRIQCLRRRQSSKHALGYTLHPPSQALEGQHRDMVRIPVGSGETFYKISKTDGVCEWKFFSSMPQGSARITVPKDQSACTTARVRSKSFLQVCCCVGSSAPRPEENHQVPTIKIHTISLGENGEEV
In words: Antagonist activity against Alpha-1 adrenergic receptor of rat anococcygeus muscle. The format is functional.

Experiment [2] relates to Adrenergic receptor alpha (Rattus norvegicus). In words: Selectivity ratio towards alpha-2 and alpha1 expressed as antilog(alpha-2pA2-alpha-1pA2).
Experiment [3] has as its target T2, Adrenergic receptor alpha-2 (Rattus norvegicus, UniProt P22086+P19328+P22909).
T2 sequence (P22086 whole entry): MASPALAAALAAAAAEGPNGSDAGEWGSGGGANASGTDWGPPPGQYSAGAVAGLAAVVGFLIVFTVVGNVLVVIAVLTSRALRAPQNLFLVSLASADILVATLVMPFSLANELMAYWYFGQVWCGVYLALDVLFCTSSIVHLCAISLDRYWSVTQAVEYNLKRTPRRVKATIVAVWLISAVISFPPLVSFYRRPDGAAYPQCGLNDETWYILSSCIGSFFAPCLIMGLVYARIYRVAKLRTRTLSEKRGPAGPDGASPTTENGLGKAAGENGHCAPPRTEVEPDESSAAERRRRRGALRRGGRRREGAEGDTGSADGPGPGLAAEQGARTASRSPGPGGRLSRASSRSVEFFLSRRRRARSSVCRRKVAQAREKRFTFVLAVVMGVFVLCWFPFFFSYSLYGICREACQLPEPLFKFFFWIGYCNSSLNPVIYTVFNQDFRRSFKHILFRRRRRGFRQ
T2 sequence (P19328 whole entry): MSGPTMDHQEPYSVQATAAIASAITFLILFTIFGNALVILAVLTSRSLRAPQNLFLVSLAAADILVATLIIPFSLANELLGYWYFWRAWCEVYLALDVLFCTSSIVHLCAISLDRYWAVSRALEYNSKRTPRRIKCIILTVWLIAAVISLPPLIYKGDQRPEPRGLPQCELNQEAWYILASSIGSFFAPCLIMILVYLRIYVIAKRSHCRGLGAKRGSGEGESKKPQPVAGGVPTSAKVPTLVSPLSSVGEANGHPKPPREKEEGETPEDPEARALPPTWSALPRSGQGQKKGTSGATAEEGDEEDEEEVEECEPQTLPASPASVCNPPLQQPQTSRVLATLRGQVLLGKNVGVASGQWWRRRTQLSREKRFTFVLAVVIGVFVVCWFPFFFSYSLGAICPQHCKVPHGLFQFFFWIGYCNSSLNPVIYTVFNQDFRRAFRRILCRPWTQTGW
T2 sequence (P22909 whole entry): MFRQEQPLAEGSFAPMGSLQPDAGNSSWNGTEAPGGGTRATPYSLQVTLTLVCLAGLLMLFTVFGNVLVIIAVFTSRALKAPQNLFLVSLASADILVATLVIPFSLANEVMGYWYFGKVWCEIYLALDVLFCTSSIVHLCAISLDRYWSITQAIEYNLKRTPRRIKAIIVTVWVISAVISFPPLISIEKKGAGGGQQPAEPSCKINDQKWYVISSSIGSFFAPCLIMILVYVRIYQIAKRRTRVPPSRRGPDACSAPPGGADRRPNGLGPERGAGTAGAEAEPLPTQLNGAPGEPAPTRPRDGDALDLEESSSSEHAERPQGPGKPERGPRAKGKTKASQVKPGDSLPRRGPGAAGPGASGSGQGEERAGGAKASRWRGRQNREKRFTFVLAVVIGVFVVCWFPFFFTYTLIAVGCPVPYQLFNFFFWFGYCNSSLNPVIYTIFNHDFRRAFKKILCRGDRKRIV
In words: Antagonism of rat alpha-2 adrenergic receptor from rat vas deferens. It is filed as functional.

In experiment [4] the target is T2, Adrenergic receptor alpha-2. Kind of experiment: Antagonist activity against alpha-2 adrenergic receptor of rat vas deferens. The format is functional, tissue-based.
Experiment [5] has as its target T1, Adrenergic receptor alpha-1. In words: Antagonist activity against alpha-1 adrenergic receptor of rat anococcygeus muscle. The format is functional.
Experiment [6] deals with Adrenergic receptor alpha (Rattus norvegicus) (UniProt P15823+P23944+P43140+P22086+P19328+P22909). In words: Ratio of pA2 values at alpha-1 and alpha-2 adrenergic receptors. The format is protein assay.

In general, pA2 refers to the negative logarithm of the molar antagonist concentration that doubles the agonist concentration needed for the same response. A low value points to lower antagonist potency. As to `CS(=O)(=O)N(CCNS(=O)(=O)CCl)[C@@H]1CCN2CCc3ccccc3[C@@H]2C1`, the pA2 is 6.2 in experiment [1] and 8.1 in experiment [3]. In addition, the Ratio in experiment [2] was 79.
Compound `CS(=O)(=O)NCCN([C@@H]1CCN2CCc3ccccc3[C@@H]2C1)S(=O)(=O)c1ccc(Cl)cc1` registered a pA2 in experiment [4] of 8.04.
For `CS(=O)(=O)NCCCN([C@@H]1CCN2CCc3ccccc3[C@@H]2C1)S(C)(=O)=O`, the pA2 in experiment [5] and in experiment [3] was 5.7 each time. Moreover, the Ratio in experiment [6] was determined as 1.
Take `CS(=O)(=O)NCCN([C@@H]1CCN2CCc3ccccc3[C@@H]2C1)S(=O)(=O)c1ccccc1`: the pA2 in experiment [5] is reported as 6.16; in experiment [3] it was 8.12. For the same compound, the Ratio in experiment [6] turned out to be 91.
On to `O=S(=O)(CCl)NCCN([C@@H]1CCN2CCc3ccccc3[C@@H]2C1)S(=O)(=O)CCl`, for which the pA2 in experiment [1] is 6.33; in experiment [3], 8. In addition, in experiment [2], the Ratio was 47.
Consider `CN(CCN([C@@H]1CCN2CCc3ccccc3[C@@H]2C1)S(C)(=O)=O)S(C)(=O)=O`, for which the pA2 in experiment [5] was found to be 5.5; in experiment [3] it was 6.03. In addition, in experiment [6], the Ratio stood at 3.
On to `CCS(=O)(=O)NCCN([C@@H]1CCN2CCc3ccccc3[C@@H]2C1)S(C)(=O)=O`, for which the pA2 in experiment [5] came out at 5.65; in experiment [3], 7.73. Moreover, the Ratio in experiment [6] was determined as 120.
On to `CS(=O)(=O)NCCCCN([C@@H]1CCN2CCc3ccccc3[C@@H]2C1)S(C)(=O)=O`, for which the pA2 in experiment [3] was found to be 5.66.
`CC(C)(CN([C@@H]1CCN2CCc3ccccc3[C@@H]2C1)S(C)(=O)=O)NS(C)(=O)=O` came in with a pA2 in experiment [3] of 6.14.
Take `Cc1cccc(S(=O)(=O)N(CCNS(C)(=O)=O)[C@@H]2CCN3CCc4ccccc4[C@@H]3C2)c1`: the pA2 in experiment [5] is on record as 6.4; in experiment [3], 8. The Ratio in experiment [6] was 40.
As to `CCS(=O)(=O)NCCN([C@@H]1CCN2CCc3ccccc3[C@@H]2C1)S(=O)(=O)CC`, the pA2 came to 5.54 in experiment [5] and 8.27 in experiment [3]. The Ratio in experiment [6] came out at 540.
As to `CS(=O)(=O)NCCN([C@@H]1CCN2CCc3ccccc3[C@@H]2C1)S(=O)(=O)c1ccc(F)cc1`, the pA2 in experiment [5] is 5.7; in experiment [3], 7.7. The Ratio in experiment [6] worked out at 100.
Consider `CS(=O)(=O)NCCN([C@@H]1CCN2CCc3ccccc3[C@@H]2C1)S(=O)(=O)c1cccc([N+](=O)[O-])c1`, for which the pA2 in experiment [5] amounted to 6.7; in experiment [3], 7.69. The Ratio in experiment [6] was found to be 10.
`Cc1ccc(S(=O)(=O)N(CCNS(C)(=O)=O)[C@@H]2CCN3CCc4ccccc4[C@@H]3C2)cc1`: the figures for the pA2 in experiment [5] and in experiment [3] were 5.8 and 8.4, respectively. For the same compound, the Ratio in experiment [6] was found to be 400.
For `CCS(=O)(=O)NCCN([C@@H]1CCN2CCc3ccccc3[C@@H]2C1)S(=O)(=O)c1ccc(C)cc1`, the pA2 is 6.6 in experiment [5] and 7.62 in experiment [3].
`CS(=O)(=O)N(CCNS(=O)(=O)C(F)(F)F)[C@@H]1CCN2CCc3ccccc3[C@@H]2C1` returned a pA2 in experiment [3] of 6.4.
Take `CCCS(=O)(=O)NCCN([C@@H]1CCN2CCc3ccccc3[C@@H]2C1)S(C)(=O)=O`: the pA2 in experiment [5] is listed as 5.7; in experiment [3] it was 6.7. Moreover, the Ratio in experiment [6] came to 10.
Turning to `COc1ccc(S(=O)(=O)N(CCNS(C)(=O)=O)[C@@H]2CCN3CCc4ccccc4[C@@H]3C2)cc1`, the pA2 in experiment [5] is given as 6.1; in experiment [3], 8.1. In addition, the Ratio in experiment [6] was 100.
In the case of `CCCS(=O)(=O)N(C)[C@@H]1CCN2CCc3ccccc3[C@@H]2C1`, in experiment [6], the Ratio turned out to be 55.
With `CCCS(=O)(=O)N(CCNS(C)(=O)=O)[C@@H]1CCN2CCc3ccccc3[C@@H]2C1`, the results for the pA2 in experiment [5] and in experiment [3] were 5.8 and 8.29, respectively. Further, the Ratio in experiment [6] is 310.
For `CCS(=O)(=O)N(CCNS(C)(=O)=O)[C@@H]1CCN2CCc3ccccc3[C@@H]2C1` the same measures were 5.65, 8.34 and 490.
For `CS(=O)(=O)NCCN([C@@H]1CCN2CCc3ccccc3[C@@H]2C1)S(C)(=O)=O` the same measures were 5.32, 7.93 and 410.
Take `CS(=O)(=O)N(CCNS(=O)(=O)c1ccccc1)[C@@H]1CCN2CCc3ccccc3[C@@H]2C1`: the pA2 in experiment [5] and in experiment [3] was 5.9 each time. The Ratio in experiment [6] turned out to be 1.
As for `CCCS(=O)(=O)N(CCNS(=O)(=O)CC)[C@@H]1CCN2CCc3ccccc3[C@@H]2C1`, the pA2 in experiment [3] amounted to 8.1.
